# Laboratory results taken from patent publication US10413505B1, “Pharmaceutical compositions and methods of using the same” (priority 2017, dated 2019).
# Assays:
# [1] = Example 2 plasma pharmacokinetics, normal renal function vs severe renal impairment; conditions: all samples in all individuals except four samples in one subject; Example 2
# [2] = Example 3 plasma pharmacokinetics, normal hepatic function vs hepatic impairment
# [3] = plasma, subjects with hepatic impairment, single intranasal dose
smiles,measurement,setting,value
COC(=O)[C@H]1[C@@H](OC(=O)c2ccccc2)C[C@@H]2CC[C@H]1N2 [norcocaine],plasma concentration (below the LLOQ),[1],< 0.1 ng/mL
same,"plasma concentration (not measurable, below LLOQ)","[2]; all subjects with normal hepatic function, all time points",< 0.1 ng/mL
same,"plasma concentration, low levels detected",[2]; multiple time points in three Grade B impaired subjects,≤ 0.31 ng/mL
same,AUC0→t (Geometric mean),[2]; [3],0.753 ng·h/mL
same,AUC0→t (Mean),[2]; [3],0.950 ng·h/mL
same,AUC0→t (Median),[2]; [3],0.788 ng·h/mL
same,Clast (Geometric mean),[2]; [3],0.126 ng/mL
same,Clast (Mean),[2]; [3],0.127 ng/mL
same,Clast (Median),[2]; [3],0.126 ng/mL
same,Cmax (Geometric mean),[2]; [3],0.219 ng/mL
same,Cmax (Mean),[2]; [3],0.227 ng/mL
same,Cmax (Median),[2]; [3],0.212 ng/mL
same,Tlast (Geometric mean),[2]; [3],5.24 h
same,Tlast (Mean),[2]; [3],6.33 h
same,Tlast (Median),[2]; [3],4.00 h
same,Tmax (Geometric mean),[2]; [3],1.50 h
same,Tmax (Mean),[2]; [3],1.50 h
same,Tmax (Median),[2]; [3],1.50 h
same,t1/2 (Geometric mean),[2]; [3],5.07 h
same,t1/2 (Mean),[2]; [3],6.23 h
same,t1/2 (Median),[2]; [3],6.23 h
same,plasma concentration,[2]; single time point (7 min) in one Grade B subject,0.354 ng/mL
